The text below walks through data of patent US10045939B2, “Unit doses, aerosols, kits, and methods for treating heart conditions by pulmonary administration” (InCarda Therapeutics, Inc., priority 2009, dated 2018).

The conditions of series [1]: cited from earlier work.
The test system of series [2] is induced supraventricular tachycardia. In words: Induced supraventricular tachycardia (SVT) model in anesthetized dogs, intratracheal (IT) vs intravenous administration. It counts as in vivo, dog. The settings on record: for cardiovascular effect when given intratracheally (summary): intratracheal, summary of study. As for the experimental part: A venous catheter was placed in a peripheral vessel (i.e., cephalic) for administration of anesthetic(s). For anesthesia induction, all animals were given a combination of diazepam (˜0.5 mg/kg) and ketamine (˜10 mg/kg) intravenously through this venous catheter. Anesthesia was sustained until completion of the study with an intravenous infusion of pentobarbital (5-15 mg/kg/hr). Following induction, animals were endotracheally intubated and mechanically ventilated (˜12 breaths/min with a tidal volume of 200-300 mL).
Subsequently, a cut-down on a jugular vein permitted the introduction of a pacing lead into the right atrium. Similarly, for arterial pressure monitoring, a solid-state micromanometer catheter (Millar Instruments) was advanced into the aortic root via a cut-down over an artery (e.g., femoral, carotid). Transthoracic electrodes forming ECG lead II was placed. For vehicle/test article delivery, a 4F catheter was introduced through the trachea and wedged into a small airway, and a venous catheter was placed in a peripheral vessel (i.e., cephalic).
Following instrumentation/hemodynamic stabilization (for at least 15 minutes), right atrial pacing (5-10 V, 40 Hz, 2 ms pulses) was established in order to induce supraventricular tachycardia (SVT); pacing and SVT was sustained throughout the duration of the experiments. Approximately 5 minutes after onset of SVT and while monitoring ECG/arterial pressure continuously, the animals were administered three escalating doses (one at a time) of a test article; each dose was delivered as a bolus (˜3 mL) directly into a small airway through the intratracheal catheter (IT). Following dosing, the heart-rate (HR) and arterial pressure response were monitored for 15 minutes.
Subsequently (once the response to three IT doses had been recorded), hemodynamic recovery was allowed for approximately 30 minutes, and the electrocardiographic/hemodynamic response to the highest test-article dose was re-evaluated; however, for comparison purposes, this dose was delivered intravenously (IV).
Overall, two groups/test-articles were studied, and up to two animals were assigned to each group (n=2/group): one group received esmolol HCL (0.5-1.0 mg/kg, ESM), while the other received adenosine (0.25-1.0 mg/kg, ADN); only one test article was administered to per animal.

The test system of series [3] is induced atrial fibrillation. In words: Induced atrial fibrillation model in anesthetized dogs, intratracheal (IT) administration. Format: in vivo, dog. The settings on record: for cardiovascular effect when given intratracheally (summary): summary of study; for conversion of atrial fibrillation to normal sinus rhythm: pulmonary (intratracheal/inhalation route). As for the experimental part: A venous catheter was placed in a peripheral vessel (i.e., cephalic) for administration of anesthetic. For anesthesia induction, all animals were given morphine sulfate (˜2 mg/kg) and a bolus of alpha chloralose (˜100 mg/kg) intravenously through the venous catheter. Anesthesia was sustained with alpha chloralose (35-75 mg/kg/hour IV), until completion of the study (<2 hours). Following induction, animals were endotracheally intubated and mechanically ventilated (˜12 breaths/minute with a tidal volume of 200-300 mL). Subsequently, a cut-down on a jugular vein permitted introduction of a pacing lead into the right atrium. Transthoracic electrodes forming ECG lead II were placed. For test/vehicle article delivery, a 4F catheter was introduced through the trachea and wedged into a small airway, and a venous catheter was placed in a peripheral vessel (i.e., cephalic). Following instrumentation and hemodynamic stabilization (for at least 15 minutes), phenylephrine was continuously infused (2 ug/kg/min IV) to elevate the systemic arterial pressure and increase vagal (parasympathetic) efferent activity for the duration of the study. Approximately 5 min after administration of this parasympathomimetic was started; the following experiments were performed: First, the right atrium was paced (20 V, 40 Hz, 4 ms pulse) for 15 minutes, and following pacing discontinuation, atrial fibrillation ensued. Approximately 3 minutes after pacing was stopped and atrial fibrillation was observed, the animals were given vehicle (˜3 mL) intra-tracheally (IT); the duration between dosing and, (if observed) the return to sinus rhythm and/or the ventricular rate was noted. Observations were made for up to 10 minutes. Subsequently, atrial fibrillation was re-established via 15-minute pacing cycle(s), as described above. Once pacing was discontinued and atrial fibrillation was observed/stable for 3 minutes, the animals were administered the vehicle or one of the test articles, delivered as a bolus (˜3 mL) directly into a small airway through the intratracheal catheter. Vehicle was only water. In the case of flecainide as the test article, the concentration was 15 mg of flecainide/3 ml of water. Following dosing, the duration between cessation of administration and, if observed, return to sinus rhythm and/or ventricular rate were noted; observations were made for up to 10 minutes.

The conditions of series [4]: human, in vivo. As for the experimental part:
The following solution strengths were prepared for taste evaluation: (1) diltiazem hydrochloride—50 mg/ml solution in distilled water; and (2) flecainide acetate—30 mg/ml solution in distilled water.
The Aeroneb®GO device was used because it is a simple-to-use device developed specifically for patients who require respiratory therapy in and away from the home. The device can be used by patients of all ages (infant through adult) and aerosolizes solutions intended for inhalation. Aeroneb® Go works with either an AC wall controller or a battery pack, and can be cleaned with soap and water. More details about this device can be obtained at www.aerogen.com.
Number of subjects: 2 healthy male volunteers
Water was poured into the nebulizer cup, and the nebulizer was turned on. The visible cloud of aerosol generated when the nebulizer was turned on was treated as a qualitative aerosol standard.
About 1 ml of the 30 mg/ml solution was poured into the cup of the nebulizer. The nebulizer was turned on and the resulting aerosol was similar to but not as dense as the aerosol formed with the water alone.
The nebulizer was then placed in the mouth and switched on. Deep lung inhalation was performed through the nebulizer. About 40 μl (˜1.2 mg of flecainide acetate) of the test solution was inhaled. The inhaled dose was sub-therapeutic in nature as it was much less than the regular 100 mg administered as tablets. Flecainide acetate is also available as an IV injection in Europe as 10 mg/ml strength in 15 ml ampoules.
About 1 ml of the 50 mg/ml solution was poured into the cup of the nebulizer. The nebulizer was turned on and the resulting aerosol was similar to but not as dense as the aerosol formed with the water alone.
The nebulizer was then placed in the mouth and a switched on. Deep lung inhalation was performed through the nebulizer. About 40 μl (˜2 mg of diltiazem hydrochloride) of the test solution was inhaled. The inhaled dose was sub-therapeutic in nature as it was much less than the IV injection marketed in the U.S. as 5 mg/ml in 5 ml vials.

A short description of series [5]: physchem. Format: physicochemical. An excerpt:
To evaluate the solubilities of flecainide acetate and diltiazem hydrochloride in water and to evaluate the acceptability of taste and aftertaste of these two drugs for administration as liquid aerosols.

Series [6] can be described thus: Preformulation: properties of solutions in water (pH, isotonicity, appearance). It counts as physicochemical. As for the experimental part: To evaluate the solubilities of flecainide acetate and diltiazem hydrochloride in water and to evaluate the acceptability of taste and aftertaste of these two drugs for administration as liquid aerosols. The following solution strengths were prepared for taste evaluation: (1) diltiazem hydrochloride—50 mg/ml solution in distilled water; and (2) flecainide acetate—30 mg/ml solution in distilled water.

The mark [7] stands for this setting: pulmonary dose 0.25 mg/kg body weight.
Setting [8] is: pulmonary dose between 2-4 mg/kg body weight.

Structures are written as SMILES. Where a name gives a salt, the structure may show the parent alone. Read-outs that look alike come from different tables or passages of the source.

As for `CCCCCCCCCCCCCCCC(=O)OC[C@H](COP(=O)([O-])OCC[N+](C)(C)C)OC(=O)CCCCCCCCCCCCCCC` [DPPC, dipalmitoylphosphatidylcholine], in series [1], the “solubility of the phospholipid in water” value was “about 10^−10 mol/L”.

In the case of `Nc1ncnc2c1ncn2[C@@H]1O[C@H](CO)[C@@H](O)[C@H]1O` [adenosine], the “effect on the heart” value in series [2] (administered via the lung) was “did not have any effect on the heart”. In addition, the “cardiovascular effect when given intratracheally (summary)” value (“cardiovascular effect” for short) in series [2] was “clear response was not observed”.

What is called solubility is the dissolved amount per volume that the medium holds. As to `COc1ccc([C@@H]2Sc3ccccc3N(CCN(C)C)C(=O)[C@@H]2OC(C)=O)cc1.Cl` [diltiazem, diltiazem hydrochloride], the PR interval entry in series [2] (IV or pulmonary route (0.25 mg/kg per FIGS. 14 and 15)) is “prolonged the PR interval”. In addition, the “timing of the electrophysiological change” value in series [2] (IV vs pulmonary) was “comparable between IV and pulmonary”. The “Mean Arterial Pressure (MAP)” value in series [2] (dog, in vivo, iv, 0.25 mg/kg) is reported as “dropped significantly in both cases”. In addition, the “comparison of pulmonary and IV routes” value in series [2] (pulmonary vs IV (0.25 mg/kg per FIGS. 14 and 15)) was “comparable in all aspects”. Moreover, the “mean arterial blood pressure (MAP)” value in series [3] (dog, in vivo, 0.25 mg/kg) is “notable drop in mean arterial blood pressure”. For the same compound, in series [3] (inhalation route, dose not stated), the heart rate entry is given as “reduced heart rate”. Further, the “cardiovascular effect” value in series [3] (intratracheal) was “clear cardiovascular effect”. Also, the “conversion of atrial fibrillation to normal sinus rhythm” value in series [3] (dose not stated, hydrochloride) was “rapidly converted the Atrial Fibrillation to normal sinus rhythm”. For the same compound, in series [3] (setting [7]), the PQ interval entry is “prolonged the PQ” and the heart rate result was “slowed down marginally”. Besides, the “conversion of induced atrial fibrillation to normal sinus rhythm” value in series [3] (pulmonary dose 0.25 mg/kg body weight, hydrochloride, 0.25 mg/kg) is listed as “converted the induced atrial fibrillation to normal sinus rhythm”. In addition, the “conversion of induced atrial fibrillation to normal sinus rhythm” value in series [3] (pulmonary dose 0.25 mg/kg body weight, listed as diltiazem HCl, hydrochloride, 0.25 mg/kg) was “Afib converting”. Besides, in series [4], the “burning sensations in the mouth, throat, or lungs” value is on record as “No burning sensations was felt in the mouth, throat, or lungs” and the visible adverse events result is on record as “No visible adverse events were observed”. Further, in series [5], the solubility is reported as greater than 90 mg/mL. In addition, the “pH of solution in water” value in series [6] (3.5 mg/mL solution in water) came out at 6.7. Besides, the “isotonicity of solution in water (% to isotonic)” value in series [6] (50 mg/mL in water) is “about 80%”. The appearance of solution result in series [6] (50 mg/ml solution in distilled water) is “clear with no visible particulate matter”.

For the compound `CN(CCOc1ccc(NS(C)(=O)=O)cc1)CCc1ccc(NS(C)(=O)=O)cc1` [dofetilide], the heart rate result in series [3] (escalating pulmonary doses of 10-40 mcg/kg body weight) is reported as “minor reduction in heart rate”. The ventricular rate result in series [3] (intratracheal, dose not stated) is listed as “marginally slowed the ventricular rate”. Also, the “cardiovascular effect” value in series [3] (intratracheal) is given as “probable effect”.

As for `COC(=O)CCc1ccc(OCC(O)CNC(C)C)cc1` (stereo not drawn) [esmolol, esmolol HCL], in series [2] (0.5 mg/kg administered via the lung), the “period of AV block (FIGS. 17, 18)” value was “AV block induced”. In series [2] (0.75 mg/kg administered via the lung), the “period of AV block (FIG. 20)” value is “AV block induced”. In series [2] (delivered via the lung, any of the doses), the “drop in MAP” value is recorded as “did not cause a drop in MAP”. Also, the “cardiovascular effect” value in series [2] is “probable effect”. In series [2] (via the lung (IT), elevating doses), the “PR intervals in the ECG traces” value is recorded as “affecting the PR intervals”. The electrophysiological effects result in series [2] (via the lung (IT), higher dose 1.0 mg/kg) is on record as “did not produce the same electrophysiological effects”. Also, in series [2] (via the lung (IT), lower doses), the AV block was found to be 2nd degree AV block.

For the compound `O=C(NCC1CCCCN1)c1cc(OCC(F)(F)F)ccc1OCC(F)(F)F` (stereo not drawn) [flecainide, flecainide acetate], in series [3] (2 mg/kg body weight), the “conversion of Afib (ECG trace, FIG. 12)” value is given as “Afib converting as soon as dosing occurred”. The “conversion of Afib to normal sinus rhythm (ECG trace, FIG. 11)” value in series [3] (4 mg/kg body weight) is recorded as “Afib converting into normal sinus rhythm”. For the same compound, in series [3] (intratracheal), the “cardiovascular effect” value was “clear cardiovascular effect”. The “conversion of atrial fibrillation to normal sinus rhythm” value in series [3] (dose not stated) is on record as “rapidly converted the Atrial Fibrillation to normal sinus rhythm”. Also, in series [3] (setting [8]), the “adverse events such as proarrhythmia” value is given as “Neither dogs exhibited any known adverse events such as proarrhythmia”, the “conversion of induced atrial fibrillation to normal sinus rhythm” value is recorded as “converted the induced atrial fibrillation to normal sinus rhythm” and the “drop in mean arterial pressure” value is recorded as “None to minimal drop in mean arterial pressure”. For the same compound, the ventricular rate result in series [3] (pulmonary, large doses) is “slower ventricular rates”. In series [4], the “burning sensations in the mouth, throat, or lungs” value is “No burning sensations was felt in the mouth, throat, or lungs” and the visible adverse events result is reported as “No visible adverse events were observed”. In series [5] (water), this compound came in with a solubility of roughly 30 mg/mL. In addition, the “pH of solution in water” value in series [6] (2.6 mg/mL solution in water) is 5.0. For the same compound, in series [6] (30 mg/mL in water), the “isotonicity of solution in water (% to isotonic)” value is “about 50%”. Besides, the appearance of solution entry in series [6] (30 mg/ml solution in distilled water) is reported as “clear with no visible particulate matter”.
